Reference: ChEMBL document CHEMBL3217524, “The anti-tumor antibiotic PD 113,271 binds to microtubule-associated protein 1B (MAP1B)” (Medchemcomm, 2011)
≈ marks a conversion by molar mass, not a printed value. Calls of active or inactive are those of the source. No cut-off for these calls is given here.

What was measured:
[1] = biological target: T1, Microtubule-associated protein 1B (Homo sapiens, UniProt P46821); experiment: Binding affinity to human MAP1B (582 to 705) expressed in T7 phage after 1 hr by ELISA
T1 sequence (P46821 2-2206 limits assumed): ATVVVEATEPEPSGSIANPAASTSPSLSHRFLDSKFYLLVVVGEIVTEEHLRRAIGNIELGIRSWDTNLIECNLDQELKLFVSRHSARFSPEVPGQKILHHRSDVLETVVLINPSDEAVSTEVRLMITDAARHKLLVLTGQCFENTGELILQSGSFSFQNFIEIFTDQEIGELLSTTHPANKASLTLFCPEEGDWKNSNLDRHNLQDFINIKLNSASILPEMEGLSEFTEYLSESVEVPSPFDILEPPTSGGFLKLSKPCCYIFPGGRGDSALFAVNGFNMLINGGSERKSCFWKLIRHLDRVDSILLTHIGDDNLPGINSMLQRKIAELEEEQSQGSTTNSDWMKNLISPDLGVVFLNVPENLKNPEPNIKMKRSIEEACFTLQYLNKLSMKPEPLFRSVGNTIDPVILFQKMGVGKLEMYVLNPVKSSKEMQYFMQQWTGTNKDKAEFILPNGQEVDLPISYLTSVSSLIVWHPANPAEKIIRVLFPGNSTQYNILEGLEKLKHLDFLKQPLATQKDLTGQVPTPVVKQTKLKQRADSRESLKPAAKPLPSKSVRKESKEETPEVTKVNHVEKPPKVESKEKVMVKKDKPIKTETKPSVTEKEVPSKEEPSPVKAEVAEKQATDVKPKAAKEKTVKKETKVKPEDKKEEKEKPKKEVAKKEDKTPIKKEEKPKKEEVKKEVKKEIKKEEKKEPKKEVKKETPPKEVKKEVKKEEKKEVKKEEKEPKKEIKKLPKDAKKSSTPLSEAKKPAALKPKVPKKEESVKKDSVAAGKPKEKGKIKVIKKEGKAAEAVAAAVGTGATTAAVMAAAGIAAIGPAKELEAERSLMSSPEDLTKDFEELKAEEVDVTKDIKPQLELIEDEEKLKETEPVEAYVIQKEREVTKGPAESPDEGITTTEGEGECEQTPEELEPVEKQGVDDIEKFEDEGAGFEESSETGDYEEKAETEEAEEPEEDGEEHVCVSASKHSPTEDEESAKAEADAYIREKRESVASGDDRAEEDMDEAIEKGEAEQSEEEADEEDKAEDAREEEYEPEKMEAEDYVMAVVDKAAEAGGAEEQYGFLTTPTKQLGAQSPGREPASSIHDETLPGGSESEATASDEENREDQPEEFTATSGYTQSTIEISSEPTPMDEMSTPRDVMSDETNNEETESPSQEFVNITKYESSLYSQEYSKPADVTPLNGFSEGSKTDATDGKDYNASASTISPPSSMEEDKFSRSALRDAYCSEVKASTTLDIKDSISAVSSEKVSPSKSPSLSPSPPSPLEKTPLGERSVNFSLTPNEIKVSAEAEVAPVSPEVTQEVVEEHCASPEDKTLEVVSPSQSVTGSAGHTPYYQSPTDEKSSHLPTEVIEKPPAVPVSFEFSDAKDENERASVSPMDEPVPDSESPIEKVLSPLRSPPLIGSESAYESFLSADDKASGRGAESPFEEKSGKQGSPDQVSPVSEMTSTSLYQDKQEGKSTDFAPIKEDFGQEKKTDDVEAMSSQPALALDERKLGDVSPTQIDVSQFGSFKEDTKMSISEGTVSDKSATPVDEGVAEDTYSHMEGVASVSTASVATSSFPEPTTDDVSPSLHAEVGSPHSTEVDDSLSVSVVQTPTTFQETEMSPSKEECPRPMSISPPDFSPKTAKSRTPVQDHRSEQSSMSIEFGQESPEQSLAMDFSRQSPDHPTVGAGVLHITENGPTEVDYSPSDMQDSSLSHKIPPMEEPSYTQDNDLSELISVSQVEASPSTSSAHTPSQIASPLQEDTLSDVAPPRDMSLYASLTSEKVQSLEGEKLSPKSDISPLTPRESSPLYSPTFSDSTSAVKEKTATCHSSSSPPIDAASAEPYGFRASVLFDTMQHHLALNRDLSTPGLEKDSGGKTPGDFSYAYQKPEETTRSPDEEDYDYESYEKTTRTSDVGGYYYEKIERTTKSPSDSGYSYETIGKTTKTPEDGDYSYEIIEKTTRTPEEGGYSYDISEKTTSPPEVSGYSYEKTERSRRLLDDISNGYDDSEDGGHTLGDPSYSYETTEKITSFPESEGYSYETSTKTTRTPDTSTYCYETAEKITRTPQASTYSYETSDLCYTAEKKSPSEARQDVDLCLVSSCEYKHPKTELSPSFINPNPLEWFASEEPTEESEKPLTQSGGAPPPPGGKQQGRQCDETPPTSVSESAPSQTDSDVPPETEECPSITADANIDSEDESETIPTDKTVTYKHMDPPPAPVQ
T1 sequence (P46821 2207-2468 limits assumed): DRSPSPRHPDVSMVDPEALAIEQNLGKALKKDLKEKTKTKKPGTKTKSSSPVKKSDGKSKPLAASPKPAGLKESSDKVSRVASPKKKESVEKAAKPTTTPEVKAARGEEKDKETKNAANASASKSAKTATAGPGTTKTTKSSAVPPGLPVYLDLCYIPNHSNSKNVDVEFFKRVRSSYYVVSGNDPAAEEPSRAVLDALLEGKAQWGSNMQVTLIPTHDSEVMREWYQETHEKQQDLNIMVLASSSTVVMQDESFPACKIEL

[2] = biological target: T1, Microtubule-associated protein 1B; experiment: Binding affinity to human recombinant MAP1B-HBR (589 to 790) expressed in Escherichia coli BL21(DE3) by surface plasmon resonance analysis
[3] = biological target: Ribosomal L1 domain-containing protein 1 (Homo sapiens) (UniProt O76021); experiment: Binding affinity to human ribosomal L1 domain containing protein (309 to 432) expressed in T7 phage after 1 hr by ELISA
[4] = Inhibition of PP2A (unknown origin) by spectrophotometry; parameters: species or system Homo sapiens
Ehrlich = experiment: Inhibition of topoisomerse-2 in mouse EAC cells; type: cell-based
[5] = Cytotoxicity against human HCT8 cells; type: functional, cell-based; settings: HCT-8
[6] = biological target: T1, Microtubule-associated protein 1B; experiment: Binding affinity to MAP1B in human MCF7 cells assessed as protein complex at 1 uM after 24 hrs by DAPI staining-based immunofluorescence microscopy relative to control; type: cell-based
L1210 = experiment: Cytotoxicity against mouse L1210 cells; type: functional, cell-based
[7] = biological target: T1, Microtubule-associated protein 1B; experiment: Binding affinity to human recombinant MAP1B-HBR (589 to 790) expressed in Escherichia coli BL21(DE3) assessed as inhibition of MAP1B-HBR-tubulin interaction at 1 to 20 uM by surface plasmon resonance analysis
[8] = biological target: T1, Microtubule-associated protein 1B; experiment: Binding affinity to MAP1B in human MCF7 cells assessed as protein localization around perinuclear region at 1 uM after 24 hrs by DAPI staining-based immunofluorescence microscopy relative to control; type: cell-based
[9] = biological target: Microtubule-associated protein 1B (Rattus norvegicus) (UniProt P15205); experiment: Binding affinity to MAP1B in rat PC12 cells after 2 hrs by Western blotting analysis; type: cell-based; settings: PC-12
Chain of Microtubule-associated protein 1B (Rattus norvegicus) (P15205 whole entry): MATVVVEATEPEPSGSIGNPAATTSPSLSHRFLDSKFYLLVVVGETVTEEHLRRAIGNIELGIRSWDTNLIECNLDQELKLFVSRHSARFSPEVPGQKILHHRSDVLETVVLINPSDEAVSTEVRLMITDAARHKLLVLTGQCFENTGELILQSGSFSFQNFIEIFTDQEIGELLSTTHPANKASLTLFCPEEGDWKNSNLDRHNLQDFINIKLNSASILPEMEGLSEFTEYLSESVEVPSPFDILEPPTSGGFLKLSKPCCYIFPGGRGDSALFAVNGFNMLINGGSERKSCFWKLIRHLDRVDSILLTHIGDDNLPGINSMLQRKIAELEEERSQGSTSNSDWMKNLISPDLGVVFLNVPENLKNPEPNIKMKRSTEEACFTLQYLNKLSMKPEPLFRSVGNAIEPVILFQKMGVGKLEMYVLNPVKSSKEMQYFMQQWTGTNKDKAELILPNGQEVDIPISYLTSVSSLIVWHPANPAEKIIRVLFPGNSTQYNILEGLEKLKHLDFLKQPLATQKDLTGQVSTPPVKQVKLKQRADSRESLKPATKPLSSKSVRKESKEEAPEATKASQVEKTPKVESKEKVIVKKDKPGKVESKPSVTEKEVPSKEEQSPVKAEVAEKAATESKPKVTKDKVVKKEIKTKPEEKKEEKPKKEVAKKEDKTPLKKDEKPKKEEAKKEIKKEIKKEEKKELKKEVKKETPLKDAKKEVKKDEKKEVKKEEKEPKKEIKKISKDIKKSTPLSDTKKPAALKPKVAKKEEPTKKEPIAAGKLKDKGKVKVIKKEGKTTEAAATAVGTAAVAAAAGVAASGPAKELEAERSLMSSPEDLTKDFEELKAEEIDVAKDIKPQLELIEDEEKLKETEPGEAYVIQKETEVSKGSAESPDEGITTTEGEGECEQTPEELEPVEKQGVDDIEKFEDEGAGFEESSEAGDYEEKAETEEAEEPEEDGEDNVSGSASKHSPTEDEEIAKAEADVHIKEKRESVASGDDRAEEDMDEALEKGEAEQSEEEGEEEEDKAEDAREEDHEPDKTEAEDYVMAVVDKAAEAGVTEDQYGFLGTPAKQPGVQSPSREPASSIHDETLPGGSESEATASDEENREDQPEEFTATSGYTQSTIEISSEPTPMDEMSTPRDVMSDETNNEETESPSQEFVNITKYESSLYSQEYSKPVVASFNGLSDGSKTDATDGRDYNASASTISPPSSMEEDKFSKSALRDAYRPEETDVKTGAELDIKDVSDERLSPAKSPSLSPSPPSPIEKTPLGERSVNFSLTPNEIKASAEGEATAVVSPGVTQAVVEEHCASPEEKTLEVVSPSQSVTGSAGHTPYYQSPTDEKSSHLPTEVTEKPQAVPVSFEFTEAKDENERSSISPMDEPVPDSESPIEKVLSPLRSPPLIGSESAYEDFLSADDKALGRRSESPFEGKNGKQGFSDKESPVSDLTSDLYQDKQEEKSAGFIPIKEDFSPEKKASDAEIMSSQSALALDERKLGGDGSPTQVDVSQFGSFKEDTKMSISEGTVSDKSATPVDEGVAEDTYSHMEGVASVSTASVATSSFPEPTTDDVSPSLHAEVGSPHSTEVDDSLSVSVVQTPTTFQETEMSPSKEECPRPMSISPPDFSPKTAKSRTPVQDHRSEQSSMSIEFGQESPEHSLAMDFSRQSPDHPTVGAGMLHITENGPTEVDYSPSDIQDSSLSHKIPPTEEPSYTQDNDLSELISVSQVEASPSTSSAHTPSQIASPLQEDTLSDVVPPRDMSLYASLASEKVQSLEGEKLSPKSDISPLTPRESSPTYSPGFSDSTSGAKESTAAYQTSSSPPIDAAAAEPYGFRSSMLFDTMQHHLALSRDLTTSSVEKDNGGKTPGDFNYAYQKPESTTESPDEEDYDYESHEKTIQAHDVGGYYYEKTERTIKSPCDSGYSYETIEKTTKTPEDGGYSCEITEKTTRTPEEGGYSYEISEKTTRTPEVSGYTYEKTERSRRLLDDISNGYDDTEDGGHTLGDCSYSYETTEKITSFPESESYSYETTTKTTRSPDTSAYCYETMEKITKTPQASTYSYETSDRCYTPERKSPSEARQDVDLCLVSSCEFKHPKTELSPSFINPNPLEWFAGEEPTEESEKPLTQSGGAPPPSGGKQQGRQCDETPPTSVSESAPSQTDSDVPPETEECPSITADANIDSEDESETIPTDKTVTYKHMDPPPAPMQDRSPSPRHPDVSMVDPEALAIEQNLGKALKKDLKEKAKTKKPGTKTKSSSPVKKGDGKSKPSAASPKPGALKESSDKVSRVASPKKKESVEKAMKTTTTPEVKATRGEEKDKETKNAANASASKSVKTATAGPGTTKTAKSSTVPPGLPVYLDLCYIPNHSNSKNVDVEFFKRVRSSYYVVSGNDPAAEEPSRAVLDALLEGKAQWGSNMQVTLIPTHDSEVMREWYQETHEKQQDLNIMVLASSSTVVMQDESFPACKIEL

Structure (SMILES) | Activity [1] | Activity [3] | MIC (Ehrlich) [µM] | IC50 [5] [nM] | other results
C[C@@](O)(/C=C/[C@@H]1OC(=O)C=C[C@@H]1OCc1ccc(OCCOCCOCc2cn(CCOCCNC(=O)CCCC[C@@H]3SC[C@@H]4NC(=O)N[C@@H]43)nn2)cc1)[C@@H](C[C@@H](O)\C=C/C=C\C=C\CO)OP(=O)(O)O | Active | Active |  |  | Kd [2]: 210 nM
C[C@@](O)(/C=C/[C@H]1CC=CC(=O)O1)[C@@H](C[C@@H](O)\C=C/C=C\C=C\CO)OP(=O)(O)O [FOSTRIECIN] |  |  | 50 (≈ 21.5 µg/mL) | 5100 | IC50 [4]: 1.5 nM
C[C@@](O)(/C=C/[C@@H]1OC(=O)C=C[C@@H]1O)[C@@H](C[C@@H](O)\C=C/C=C\C=C\CO)OP(=O)(O)O |  |  | 12.5 (≈ 5.58 µg/mL) | 9000 | Activity [6]: Active; IC50 (L1210): 1800 nM; Activity [7]: Active; Activity [8]: Active; Activity [9]: Active
O=C(CCCC[C@@H]1SC[C@@H]2NC(=O)N[C@@H]21)NCCOCCn1cc(COCCOCCOc2ccc(COP(=O)(O)O)cc2)nn1 | inactive | Active |  |  | 
